According to patent US20170334899A1, “AMINO-SUBSTITUTED ISOTHIAZOLES” (Bayer Pharma Aktiengesellschaft, priority 2014, published 2017):

Assays:
[1] = system: HeLa; test: Proliferation assay (crystal violet), HeLa; type: cell-based; details: Homo sapiens, HeLa, 96 h, HeLa cells; 4 days incubation; crystal violet staining; read-out: IC50 inhibition of proliferation, HeLa
Summary of the method: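 Four-day compound exposure (0.001-10 μM, 0.5% DMSO final) began 24 h after seeding 1000-5000 cells/well in medium with 10% fetal calf serum. Cell number read by crystal violet absorbance at 595 nm, scaled between day-zero plate and untreated control; 4-parameter fit gave IC50.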

[2] = target: T1, catalytic domain of human Bub1 (amino acids 704-1085) (Homo sapiens, UniProt O43683); test: Bub1 kinase assay (TR-FRET); type: biochemical; details: 10 μM ATP, avg, read-out: Bub1 avg (IC50 [mol/l])
T1 construct: catalytic domain of human Bub1 (amino acids 704-1085); His6 (N); made in house; host or cells: insect cells (Hi5)
T1 sequence (O43683 704-1085): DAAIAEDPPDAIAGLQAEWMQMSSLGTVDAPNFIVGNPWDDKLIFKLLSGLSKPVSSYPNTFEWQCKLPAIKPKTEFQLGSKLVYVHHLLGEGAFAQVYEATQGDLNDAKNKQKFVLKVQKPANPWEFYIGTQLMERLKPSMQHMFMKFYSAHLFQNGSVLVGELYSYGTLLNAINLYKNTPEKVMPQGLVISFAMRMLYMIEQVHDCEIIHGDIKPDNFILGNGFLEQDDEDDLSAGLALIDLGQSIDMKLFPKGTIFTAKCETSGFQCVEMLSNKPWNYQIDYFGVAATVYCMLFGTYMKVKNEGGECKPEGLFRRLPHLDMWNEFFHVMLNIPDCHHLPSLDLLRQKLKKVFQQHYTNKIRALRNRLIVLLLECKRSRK
Excerpt: Bub1-inhibitory activity of compounds of the present invention was quantified employing the Bub1 TR-FRET assay as described in the following paragraphs.
N-terminally His6-tagged recombinant catalytic domain of human Bub1 (amino acids 704-1085), expressed in insect cells (Hi5) and purified by Ni-NTA affinity chromatography and subsequent size exclusion chromatography, was used as enzyme. As substrate for the kinase reaction the biotinylated peptide biotin-Ahx-VLLPKKSFAEPG (C-terminus in amid form) was used which can be purchased e.g. form the company Biosyntan (Berlin, Germany).
For the assay 50 nl of a 100fold concentrated solution of the test compound in DMSO was pipetted into a black low volume 384well microtiter plate (Greiner Bio-One, Frickenhausen, Germany), 2 μl of a solution of Bub1 in aqueous assay buffer [50 mM Tris/HCl pH 7.5, 10 mM magnesium chloride (MgCl2), 200 mM potassium chloride (KCl), 1.0 mM dithiothreitol (DTT), 0.1 mM sodium ortho-vanadate, 1% (v/v) glycerol, 0.01% (w/v) bovine serum albumine (BSA), 0.005% (v/v) Trition X-100 (Sigma), 1× Complete EDTA-free protease inhibitor mixture (Roche)] were added and the mixture was incubated for 15 min at 22° C. to allow pre-binding of the test compounds to the enzyme before the start of the kinase reaction. Then the kinase reaction was started by the addition of 3 μl of a solution of adenosine-tri-phosphate (ATP, 16.7 μM=>final conc. in the 5 μl assay volume is 10 μM) and substrate (1.67 μM=>final conc. in the 5 μl assay volume is 1 μM) in assay buffer and the resulting mixture was incubated for a reaction time of 60 min at 22° C. The concentration of Bub1 was adjusted depending of the activity of the enzyme lot and was chosen appropriate to have the assay in the linear range, typical concentrations were in the range of 200 ng/ml. The reaction was stopped by the addition of 5 μl of a solution of TR-FRET detection reagents (0.2 μM streptavidine-XL665 [Cisbio Bioassays, Codolet, France] and 1 nM anti-phosho-Serine antibody [Merck Millipore, cat. #35-001] and 0.4 nM LANCE EU-W1024 labeled anti-mouse IgG antibody [Perkin-Elmer, product no. AD0077, as an alternative a Terbium-cryptate-labeled anti-mouse IgG antibody from Cisbio Bioassays can be used]) in an aqueous EDTA-solution (50 mM EDTA, 0.2% (w/v) bovine serum albumin in 100 mM HEPES pH 7.5).
The resulting mixture was incubated 1 h at 22° C. to allow the formation of complex between the phosphorylated biotinylated peptide and the detection reagents. Subsequently the amount of phosphorylated substrate was evaluated by measurement of the resonance energy transfer from the Eu-chelate to the streptavidine-XL. Therefore, the fluorescence emissions at 620 nm and 665 nm after excitation at 350 nm was measured in a TR-FRET reader, e.g. a Rubystar or Pherastar (both from BMG Labtechnologies, Offenburg, Germany) or a Viewlux (Perkin-Elmer). The ratio of the emissions at 665 nm and at […] was taken as the measure for the amount of phosphorylated substrate. The data were normalised (enzyme reaction without inhibitor=0% inhibition, all other assay components but no enzyme=100% inhibition).

| Structure (SMILES) | IC50 [1] [nM] | IC50 [2] [nM] |
| --- | --- | --- |
| Cc1nsc(Nc2cnc(C(F)(F)F)cn2)c1C(=O)Nc1ccc(O[C@@H]2CCN(CC(F)(F)F)C[C@@H]2F)nc1 [Example 138, N-(6-{[(3S,4R)-3-fluoro-1-(2,2,2-trifluoroethyl)piperidin-4-yl]oxy}pyridin-3-yl)-3-methyl-5-{[5-(trifluoromethyl)pyrazin-2-yl]amino}-1,2-thiazole-4-carboxamide] | 140 | > 20000 |
| Cc1nsc(Nc2cnc(C(F)(F)F)cn2)c1C(=O)Nc1ccc(O[C@@H]2CCN(CCC(F)(F)F)C[C@@H]2F)nc1 [Example 139, N-(6-{[(3S,4R)-3-fluoro-1-(3,3,3-trifluoropropyl)piperidin-4-yl]oxy}pyridin-3-yl)-3-methyl-5-{[5-(trifluoromethyl)pyrazin-2-yl]amino}-1,2-thiazole-4-carboxamide] | 260 | > 20000 |
| CCCN1CC[C@@H](Oc2ccc(NC(=O)c3c(C)nsc3Nc3cnc(C(F)(F)F)cn3)cn2)[C@@H](F)C1 [Example 140, N-(6-{[(3S,4R)-3-fluoro-1-propylpiperidin-4-yl]oxy}pyridin-3-yl)-3-methyl-5-{[5-(trifluoromethyl)pyrazin-2-yl]amino}-1,2-thiazole-4-carboxamide] | 220 | > 20000 |
| Cc1nsc(Nc2cnc(C(F)(F)F)cn2)c1C(=O)Nc1ccc(O[C@H]2CCN(CC(F)(F)F)C[C@H]2F)nc1 [Example 145, N-(6-{[(3R,4S)-3-fluoro-1-(2,2,2-trifluoroethyl)piperidin-4-yl]oxy}pyridin-3-yl)-3-methyl-5-{[5-(trifluoromethyl)pyrazin-2-yl]amino}-1,2-thiazole-4-carboxamide] | 160 | > 20000 |
| Cc1nsc(Nc2cnc(C(F)(F)F)cn2)c1C(=O)Nc1ccc(O[C@H]2CCN(CCC(F)(F)F)C[C@H]2F)nc1 [Example 146, N-(6-{[(3R,4S)-3-fluoro-1-(3,3,3-trifluoropropyl)piperidin-4-yl]oxy}pyridin-3-yl)-3-methyl-5-{[5-(trifluoromethyl)pyrazin-2-yl]amino}-1,2-thiazole-4-carboxamide] | 240 | > 20000 |
| CCCCN1CC[C@H](Oc2ccc(NC(=O)c3c(C)nsc3Nc3cnc(C(F)(F)F)cn3)cn2)[C@H](F)C1 [Example 148, N-(6-{[(3R,4S)-1-butyl-3-fluoropiperidin-4-yl]oxy}pyridin-3-yl)-3-methyl-5-{[5-(trifluoromethyl)pyrazin-2-yl]amino}-1,2-thiazole-4-carboxamide] | 370 | > 20000 |
| Cc1nsc(Nc2cnc3cc(F)ccc3n2)c1C(=O)Nc1ccc(S(N)(=O)=O)cc1 [Example 149, 5-[(6-fluoroquinoxalin-2-yl)amino]-3-methyl-N-(4-sulfamoylphenyl)-1,2-thiazole-4-carboxamide] | > 10000 | > 20000 |

More lines, in order of falling IC50 [1], values ahead:

| IC50 [1] [nM] | IC50 [2] [nM] | Structure (SMILES) |
| --- | --- | --- |
| 340 | ≥ 20000 | CCCCN1CC[C@@H](Oc2ccc(NC(=O)c3c(C)nsc3Nc3cnc(C(F)(F)F)cn3)cn2)[C@@H](F)C1 [Example 141, N-(6-{[(3S,4R)-1-butyl-3-fluoropiperidin-4-yl]oxy}pyridin-3-yl)-3-methyl-5-{[5-(trifluoromethyl)pyrazin-2-yl]amino}-1,2-thiazole-4-carboxamide] |
| 320 | > 20000 | CCCN1CC[C@H](Oc2ccc(NC(=O)c3c(C)nsc3Nc3cnc(C(F)(F)F)cn3)cn2)[C@H](F)C1 [Example 147, N-(6-{[(3R,4S)-3-fluoro-1-propylpiperidin-4-yl]oxy}pyridin-3-yl)-3-methyl-5-{[5-(trifluoromethyl)pyrazin-2-yl]amino}-1,2-thiazole-4-carboxamide] |
| 160 | > 20000 | Cc1nsc(Nc2cnc(C(F)(F)F)cn2)c1C(=O)Nc1ccc(O[C@H]2CCN(CC(F)F)C[C@H]2F)nc1 [Example 144, N-(6-{[(3R,4S)-1-(2,2-difluoroethyl)-3-fluoropiperidin-4-yl]oxy}pyridin-3-yl)-3-methyl-5-{[5-(trifluoromethyl)pyrazin-2-yl]amino}-1,2-thiazole-4-carboxamide] |
